Species on record: Rattus norvegicus
Assay: DrugMatrix - Regimen: Daily Repeat
Assay type: toxicity, organism-based, Sprague-Dawley
Set-up: regimen Daily Repeat, gender Male, age 6-8 weeks
Settings: in vivo, po, route oral GAVAGE, vehicle .5 % CMC; for ABSOLUTE BASOPHIL / ABSOLUTE EOSINOPHIL / ABSOLUTE LYMPHOCYTE / ABSOLUTE MONOCYTE / ABSOLUTE SEGMENTED NEUTROPHIL / BASOPHIL / EOSINOPHIL / ERYTHROCYTE COUNT / HEMATOCRIT / HEMOGLOBIN / LEUKOCYTE COUNT / LYMPHOCYTE / MEAN CORPUSCULAR HEMOGLOBIN / MEAN CORPUSCULAR HEMOGLOBIN CONCENTRATION / MEAN CORPUSCULAR VOLUME / MONOCYTE / NEUTROPHIL / NUCLEATED RED BLOOD CELLS / PLATELET COUNT: tissue Blood; for ALANINE AMINOTRANSFERASE / ALBUMIN / ALKALINE PHOSPHATASE / ASPARTATE AMINOTRANSFERASE / BLOOD UREA NITROGEN / CARBON DIOXIDE / CHLORIDE / CHOLESTEROL / CREATINE PHOSPHOKINASE / CREATININE / GLUCOSE / LACTATE DEHYDROGENASE / LIPASE / PHOSPHORUS / POTASSIUM / SODIUM / TOTAL BILIRUBIN / TOTAL PROTEIN / URIC ACID: tissue Plasma
[1] = 0 mg/kg, 72 h, dose level Control, time 3 day
[2] = 0 mg/kg, 120 h, dose level Control, time 5 day
[3] = 100 mg/kg, 72 h, dose level Low, time 3 day

## CCc1ccc(C(=O)C(C)CN2CCCCC2)cc1 (centres undefined) [EPERISONE]
[1]
  ABSOLUTE BASOPHIL: 0 CELLS/uL
  ABSOLUTE EOSINOPHIL: 284.5 CELLS/uL
  ABSOLUTE LYMPHOCYTE: 11670.5 CELLS/uL
  ABSOLUTE MONOCYTE: 420.83 CELLS/uL
  ABSOLUTE SEGMENTED NEUTROPHIL: 1024.17 CELLS/uL
  BASOPHIL: 0%
  EOSINOPHIL: 1.67%
  ERYTHROCYTE COUNT: 5.38 x10E6/uL
  HEMATOCRIT: 34.05%
  HEMOGLOBIN: 12.75 G/DL
  LEUKOCYTE COUNT: 13.4 x10E3/uL
  LYMPHOCYTE: 88.33%
  MEAN CORPUSCULAR HEMOGLOBIN: 23.73 pg
  MEAN CORPUSCULAR HEMOGLOBIN CONCENTRATION: 37.43 G/DL
  MEAN CORPUSCULAR VOLUME: 63.4 fL
  MONOCYTE: 2.83%
  NEUTROPHIL: 7.17%
  NUCLEATED RED BLOOD CELLS: 0 /100WBC
  PLATELET COUNT: 1184.67 x10E3/uL
  ALANINE AMINOTRANSFERASE: 45.33 u/L
  ALBUMIN: 4.3 G/DL
  ALKALINE PHOSPHATASE: 388.83 u/L
  ASPARTATE AMINOTRANSFERASE: 84.83 u/L
  BLOOD UREA NITROGEN: 15.5 mg/dL
  CARBON DIOXIDE: 27 mmol/L
  CHLORIDE: 101.8 MEQ/L
  CHOLESTEROL: 76.67 mg/dL
  CREATINE PHOSPHOKINASE: 301 u/L
  CREATININE: 0.21 mg/dL
  GLUCOSE: 168.83 mg/dL
  LACTATE DEHYDROGENASE: 294.83 u/L
  LIPASE: 9.8 u/L
  PHOSPHORUS: 13.25 mg/dL
  POTASSIUM: 6.41 MEQ/L
  SODIUM: 143.72 MEQ/L
  TOTAL BILIRUBIN: 0.22 mg/dL
  TOTAL PROTEIN: 5.98 G/DL
  URIC ACID: 1.5 mg/dL
[2]
  ABSOLUTE BASOPHIL: 0 CELLS/uL
  ABSOLUTE EOSINOPHIL: 190.67 CELLS/uL
  ABSOLUTE LYMPHOCYTE: 12549.5 CELLS/uL
  ABSOLUTE MONOCYTE: 276 CELLS/uL
  ABSOLUTE SEGMENTED NEUTROPHIL: 1067.17 CELLS/uL
  BASOPHIL: 0%
  EOSINOPHIL: 1.33%
  ERYTHROCYTE COUNT: 5.66 x10E6/uL
  HEMATOCRIT: 35.92%
  HEMOGLOBIN: 13.65 G/DL
  LEUKOCYTE COUNT: 14.08 x10E3/uL
  LYMPHOCYTE: 89%
  MEAN CORPUSCULAR HEMOGLOBIN: 24.12 pg
  MEAN CORPUSCULAR HEMOGLOBIN CONCENTRATION: 38.03 G/DL
  MEAN CORPUSCULAR VOLUME: 63.47 fL
  MONOCYTE: 2%
  NEUTROPHIL: 7.67%
  NUCLEATED RED BLOOD CELLS: 0.17 /100WBC
  PLATELET COUNT: 1251.67 x10E3/uL
  ALANINE AMINOTRANSFERASE: 43.33 u/L
  ALBUMIN: 4.22 G/DL
  ALKALINE PHOSPHATASE: 365.67 u/L
  ASPARTATE AMINOTRANSFERASE: 83.67 u/L
  BLOOD UREA NITROGEN: 18.17 mg/dL
  CARBON DIOXIDE: 28.67 mmol/L
  CHLORIDE: 103.5 MEQ/L
  CHOLESTEROL: 71.5 mg/dL
  CREATINE PHOSPHOKINASE: 284.5 u/L
  CREATININE: 0.21 mg/dL
  GLUCOSE: 161.67 mg/dL
  LACTATE DEHYDROGENASE: 259.67 u/L
  LIPASE: 9.5 u/L
  PHOSPHORUS: 12.45 mg/dL
  POTASSIUM: 6.49 MEQ/L
  SODIUM: 144.25 MEQ/L
  TOTAL BILIRUBIN: 0.2 mg/dL
  TOTAL PROTEIN: 6.1 G/DL
  URIC ACID: 1.73 mg/dL
[3]
  ABSOLUTE BASOPHIL: 0 CELLS/uL
  ABSOLUTE EOSINOPHIL: 0 CELLS/uL
  ABSOLUTE LYMPHOCYTE: 7799.67 CELLS/uL
  ABSOLUTE MONOCYTE: 242.67 CELLS/uL
  ABSOLUTE SEGMENTED NEUTROPHIL: 691 CELLS/uL
  BASOPHIL: 0%
  EOSINOPHIL: 0%
  ERYTHROCYTE COUNT: 5.44 x10E6/uL
  HEMATOCRIT: 34.63%
  HEMOGLOBIN: 12.8 G/DL
  LEUKOCYTE COUNT: 8.73 x10E3/uL
  LYMPHOCYTE: 89.33%
  MEAN CORPUSCULAR HEMOGLOBIN: 23.6 pg
  MEAN CORPUSCULAR HEMOGLOBIN CONCENTRATION: 36.97 G/DL
  MEAN CORPUSCULAR VOLUME: 63.73 fL
  MONOCYTE: 2.67%
  NEUTROPHIL: 8%
  NUCLEATED RED BLOOD CELLS: 0 /100WBC
  PLATELET COUNT: 1233.67 x10E3/uL
  ALANINE AMINOTRANSFERASE: 50 u/L
  ALBUMIN: 4.33 G/DL
  ALKALINE PHOSPHATASE: 470.67 u/L
  ASPARTATE AMINOTRANSFERASE: 82 u/L
  BLOOD UREA NITROGEN: 13.67 mg/dL
  CARBON DIOXIDE: 29.33 mmol/L
  CHLORIDE: 101.5 MEQ/L
  CHOLESTEROL: 90.33 mg/dL
  CREATINE PHOSPHOKINASE: 213.33 u/L
  CREATININE: 0.21 mg/dL
  GLUCOSE: 138.33 mg/dL
  LACTATE DEHYDROGENASE: 128.67 u/L
  LIPASE: 9 u/L
  PHOSPHORUS: 11.63 mg/dL
  POTASSIUM: 6.14 MEQ/L
  SODIUM: 146.7 MEQ/L
  TOTAL BILIRUBIN: 0.3 mg/dL
  TOTAL PROTEIN: 6.07 G/DL
  URIC ACID: 0.97 mg/dL
